According to PubChem BioAssay AID2060906 (Molecular Pharmacology Branch, DTP, NCI, 2025):
One block for each compound: values may come before it.

Test system: 485176-168-R4-J1-PDC complex spheroid growth
Experiment: Anticancer human tumor 485176-168-R4-J1-PDC patient-derived pancreatic adenocarcinoma cell line growth inhibition [RAS]
Conditions: for IC50: curve of first compound; for viability, T/C: stronger effect = lower value
Summary of the method: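 Multi-cell-type spheroids: tumor cells plus HUVEC endothelial cells and mesenchymal stem cells. RAS-pathway inhibitors were combined with targeted agents, each dosed in half-log steps down from clinical Cmax, or from 10 microM when Cmax was unknown.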

[1] = second compound 0.00316 µM, first compound 0.0316 µM
[2] = second compound 0.00316 µM, first compound 0.1 µM
[3] = second compound 0.01 µM, first compound 0.0316 µM
[4] = second compound 0.01 µM, first compound 0.1 µM
[5] = second compound 0.0316 µM, first compound 0.0316 µM
[6] = second compound 0.0316 µM, first compound 0.1 µM
[7] = second compound 0.1 µM, first compound 0.0316 µM
[8] = second compound 0.1 µM, first compound 0.1 µM
[9] = second compound 0.316 µM, first compound 0.0316 µM
[10] = second compound 0.316 µM, first compound 0.1 µM
[11] = second compound 1 µM, first compound 0.0316 µM
[12] = second compound 1 µM, first compound 0.1 µM
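Also: spheroids exposed to compounds for seven days before readout.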
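For viability, T/C in this document: luminescence viability expressed relative to DMSO vehicle wells set as 100%.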

IC50 (second compound 0.00316 µM): 1690 nM
IC50 (second compound 0.01 µM): 2420 nM
IC50 (second compound 0.0316 µM): 1630 nM
IC50 (second compound 0.1 µM): 1540 nM
IC50 (second compound 0.316 µM): 2370 nM
IC50 (second compound 1 µM): 1340 nM
Compound: CC(C)NCC(C(=O)N1CCN(c2ncnc3c2C(C)CC3O)CC1)c1ccc(Cl)cc1 (centres undefined) + C=CC(=O)N1CCN(c2nc(OCC3CCCN3C)nc3c(F)c(-c4nc(N)cc(C)c4C(F)(F)F)c(Cl)cc23)C(C)C1
viability, T/C [1]: 93.7%
viability, T/C [2]: 97.9%
viability, T/C (second compound 0.00316 µM, first compound 0.316 µM): 78%
viability, T/C (second compound 0.00316 µM, first compound 1 µM): 57.4%
viability, T/C (second compound 0.00316 µM, first compound 3.16 µM): 42.8%
viability, T/C (second compound 0.00316 µM, first compound 10 µM): 35.3%
viability, T/C [3]: 104%
viability, T/C [4]: 83.3%
viability, T/C (second compound 0.01 µM, first compound 0.316 µM): 79%
viability, T/C (second compound 0.01 µM, first compound 1 µM): 62.4%
viability, T/C (second compound 0.01 µM, first compound 3.16 µM): 43.8%
viability, T/C (second compound 0.01 µM, first compound 10 µM): 34.2%
viability, T/C [5]: 101%
viability, T/C [6]: 83.5%
viability, T/C (second compound 0.0316 µM, first compound 0.316 µM): 70.7%
viability, T/C (second compound 0.0316 µM, first compound 1 µM): 53.2%
viability, T/C (second compound 0.0316 µM, first compound 3.16 µM): 45.3%
viability, T/C (second compound 0.0316 µM, first compound 10 µM): 30.5%
viability, T/C [7]: 109%
viability, T/C [8]: 82.7%
viability, T/C (second compound 0.1 µM, first compound 0.316 µM): 69.2%
viability, T/C (second compound 0.1 µM, first compound 1 µM): 55%
viability, T/C (second compound 0.1 µM, first compound 3.16 µM): 45.2%
viability, T/C (second compound 0.1 µM, first compound 10 µM): 29.9%
viability, T/C [9]: 106%
viability, T/C [10]: 102%
viability, T/C (second compound 0.316 µM, first compound 0.316 µM): 79.3%
viability, T/C (second compound 0.316 µM, first compound 1 µM): 65.2%
viability, T/C (second compound 0.316 µM, first compound 3.16 µM): 46.1%
viability, T/C (second compound 0.316 µM, first compound 10 µM): 27.3%
viability, T/C [11]: 108%
viability, T/C [12]: 93.9%
viability, T/C (second compound 1 µM, first compound 0.316 µM): 79.1%
viability, T/C (second compound 1 µM, first compound 1 µM): 50.5%
viability, T/C (second compound 1 µM, first compound 3.16 µM): 41%
viability, T/C (second compound 1 µM, first compound 10 µM): 28.9%

IC50 (second compound 0.00316 µM): 20.1 nM
IC50 (second compound 0.01 µM): 27.2 nM
IC50 (second compound 0.0316 µM): 16.6 nM
IC50 (second compound 0.1 µM): 35.5 nM
IC50 (second compound 0.316 µM): 21.5 nM
IC50 (second compound 1 µM): 23.6 nM
Compound: CC(C)n1nc(-c2ccc3oc(N)nc3c2)c2c(N)ncnc21 + C=CC(=O)N1CCN(c2nc(OCC3CCCN3C)nc3c(F)c(-c4nc(N)cc(C)c4C(F)(F)F)c(Cl)cc23)C(C)C1
viability, T/C (second compound 0.00316 µM, first compound 0.000316 µM): 97.2%
viability, T/C (second compound 0.00316 µM, first compound 0.001 µM): 92.6%
viability, T/C (second compound 0.00316 µM, first compound 0.00316 µM): 84.2%
viability, T/C (second compound 0.00316 µM, first compound 0.01 µM): 66.1%
viability, T/C [1]: 39.3%
viability, T/C [2]: 27%
viability, T/C (second compound 0.01 µM, first compound 0.000316 µM): 81.8%
viability, T/C (second compound 0.01 µM, first compound 0.001 µM): 88.8%
viability, T/C (second compound 0.01 µM, first compound 0.00316 µM): 91.8%
viability, T/C (second compound 0.01 µM, first compound 0.01 µM): 67.5%
viability, T/C [3]: 48.6%
viability, T/C [4]: 18.8%
viability, T/C (second compound 0.0316 µM, first compound 0.000316 µM): 89.9%
viability, T/C (second compound 0.0316 µM, first compound 0.001 µM): 90%
viability, T/C (second compound 0.0316 µM, first compound 0.00316 µM): 81.2%
viability, T/C (second compound 0.0316 µM, first compound 0.01 µM): 54.7%
viability, T/C [5]: 42.3%
viability, T/C [6]: 23.8%
viability, T/C (second compound 0.1 µM, first compound 0.000316 µM): 109%
viability, T/C (second compound 0.1 µM, first compound 0.001 µM): 89.5%
viability, T/C (second compound 0.1 µM, first compound 0.00316 µM): 84.7%
viability, T/C (second compound 0.1 µM, first compound 0.01 µM): 74.5%
viability, T/C [7]: 56%
viability, T/C [8]: 23.3%
viability, T/C (second compound 0.316 µM, first compound 0.000316 µM): 92%
viability, T/C (second compound 0.316 µM, first compound 0.001 µM): 78.3%
viability, T/C (second compound 0.316 µM, first compound 0.00316 µM): 85.7%
viability, T/C (second compound 0.316 µM, first compound 0.01 µM): 62.6%
viability, T/C [9]: 43.6%
viability, T/C [10]: 30.1%
viability, T/C (second compound 1 µM, first compound 0.000316 µM): 81.1%
viability, T/C (second compound 1 µM, first compound 0.001 µM): 92.6%
viability, T/C (second compound 1 µM, first compound 0.00316 µM): 82%
viability, T/C (second compound 1 µM, first compound 0.01 µM): 72%
viability, T/C [11]: 42.5%
viability, T/C [12]: 22.2%
